Like-named read-outs stand apart in the source and are kept apart here. Ends that are not written are not given here.
B1: Renin (protein, UniProt P00797 67-406, looked up)
Renin: LTLGNTTSSVILTNYMDTQYYGEIGIGTPPQTFKVVFDTGSSNVWVPSSKCSRLYTACVYHKLFDASDSSSYKHNGTELTLRYSTGTVSGFLSQDIITVGGITVTQMFGEVTEMPALPFMLAEFDGVVGMGFIEQAIGRVTPIFDNIISQGVLKEDVFSFYYNRDSENSQSLGGQIVLGGSDPQHYEGNFHYINLIKTGVWQIQMKGVSVGSSTLLCEDGCLALVDTGASYISGSTSSIEKLMEALGAKKRLFDYVVKCNEGPTLPDISFHLGGKEYTLTSADYVFQESYSSKKLCTLAIHAMDIPPPTGPTWALGATFIRKFYTEFDRRNNRIGFALAR

Experiments:
[1] = test system: polyclonal anti-ouabain antisera; assay type: binding, rabbit
Protocol: Polyclonal anti-ouabain antisera was obtained from the immunized rabbits by collecting blood from the central ear artery, allowing the blood to clot for 2 hr at room temperature, centrifuging the clotted blood at 1000 ×g for 10 min, and removing the polyclonal anti-ouabain antisera.
The polyclonal antisera was extensively characterized by testing the degree to which it cross-reacted with (1) other substances known to be present in human body fluids and tissues, and (2) cardiotonic steroids closely related to ouabain but not known to be present in human body fluids and tissues.

(Na^+ +K^+)ATPase [2] = target: T1, (Na^+ +K^+)ATPase (Canis lupus familiaris, UniProt P50997); assay: Competition for ^3 H-ouabain binding to purified (Na^+ +K^+)ATPase; design: species or system dog; conditions: type II conditions
T1 construct: (Na^+ +K^+)ATPase was purified from the outer medulla of dog kidney; from tissue; host or cells: dog kidney outer medulla, purified membrane enzyme
Protocol: (§1) More specifically, (Na^+ +K^+)ATPase was purified from the outer medulla of dog kidney using the angle rotor procedure (Jorgensen, P.L., Biochim. Biophys. Acta, 356:36-52 (1974)) and stored frozen at -60° C. at 1.0 mg/ml in 25 mM imidazole-HCl (pH 7.5) and 1.0 mM EDTA, in small aliquots. (Na^+ +K^+)ATPase activity was determined at 37° C. from rate measurements in 1.0 ml of coupled optical assay mixture comprising 20 mM KCl, 100 mM NaCl, 4.5 mM MgSO4, 5.0 mM EGTA, 3.0 mM ATP-Na2, 1.2 mM phosphoenol-pyruvate-tricyclohexylammonium, 0.3 mM NADH, 100 mM TES-Tris (ph 7.4), 5.0 units of lactate dehydrogenase, and 5.0 units of pyruvate kinase (Hamlyn, J.M. et al, Nature, 300:650-652 (1982)). (Na^+ +K^+)ATPase activity was 99% ouabain-inhibitable with activities of 10-18 μmol/min/mg of membrane protein. Maximally effective concentrations of digitalis-like activity had no effect on the enzymatic components of the coupled optical assay as determined by inspection of rates in response to addition of 20-50 μM ADP. The maximal capacity of the coupled optical assay was at least 500-2000 fold greater than the typical maximal hydrolytic rate of the (Na^+ +K^+)ATPase and was not rate limiting under any assay condition described herein.
Competition for ^3 H-ouabain (Amersham Corp. or DuPont-New England Nuclear) binding was carried out in 670 μl of binding buffer comprising, in final concentrations, 10 mM TES-Tris (pH 7.4), 0.5 mM EDTA, 5.0 mM MgCl2 and 5.0 mM Na2 HPO4 (hereinafter "binding buffer") and 50 nM ouabain containing ^3 H-ouabain tracer, and including the unknown sample. Binding was initiated by addition of 0.1-2 μg of purified (Na^+ +K^+)ATPase and the reaction performed for 2 hr at 37° C. […] Trapped ^3 H-ouabain was determined by scintillation counting, following 12 hr of soaking the filters in 4.0 ml of Beckman Ready Protein ™ scintillation cocktail (Beckman, Palo Alto, Calif.). […] All binding data were corrected for quench, and specific binding was expressed as pmol/mg of enzyme protein. […]

[3] = test system: rings of aorta from guinea pigs; assay: Vasoactive properties in rings of aorta from guinea pigs; design: species or system guinea pig
Protocol: The aortic rings were incubated at 37° C. in phosphate buffered saline. The rings were submaximally contracted for 3 to 7 min, every 35 min, with 0.2 or 1.0 μM histamine. […] The apparent half-time for washout of the augmented tension response in the presence of plant ouabain was also much greater than 60 min.

[4] = test system: left atria from guinea pigs; assay: Inotropic properties in left atria from guinea pigs; design: species or system guinea pig
Protocol: Atria were incubated at 37° C. in phosphate buffered saline comprising 130 mM NaCl, 5.4 mM KCl, 1.8 mM MgCl2, 0.4 mM NaH2 PO4, 19 mM NaHCO3 and 5.4 g of glucose (pH 7.3-7.4), and gassed with 95% O2 /5% CO2. Tissues were stimulated at 1 Hz with twice threshold square pulses (0.8 to 1.0 V) of 0.7 to 1.2 msec duration. Resting tension was optimized for maximum isometric force generation. Control records were obtained once the phasic force was stabilized. […] For comparison, 200 nM plant ouabain evoked an inotropic response of 311±41% (N=4 experiments) which returned to normal with a half-time of approximately 5 min upon washout.

(Na^+ +K^+)ATPase [5] = target: T1, (Na^+ +K^+)ATPase; assay: Inhibition of (Na^+ +K^+)ATPase activity (coupled optical assay); assay type: biochemical, dog; conditions: purified dog kidney enzyme, 37° C.
Protocol: as §1
The inhibition of (Na^+ +K^+)ATPase was carried out as described above.

[6] = Table 1, polyclonal anti-ouabain antisera

| Molecule | cross-reactivity (relative to ouabain) [1, 6] | other results |
| --- | --- | --- |
| C[C@]12CCC(=O)C=C1CC[C@@H]1[C@@H]2[C@@H](O)C[C@]2(C=O)[C@@H](C(=O)CO)CC[C@@H]12 [Aldosterone] | 0.012% | – |
| NC(=O)CC[C@@H]1NC(=O)[C@H](Cc2ccccc2)NC(=O)[C@H](Cc2ccc(O)cc2)NC(=O)[C@@H](N)CSSC[C@@H](C(=O)N2CCC[C@H]2C(=O)N[C@@H](CCCN=C(N)N)C(=O)NCC(N)=O)NC(=O)[C@H](CC(N)=O)NC1=O [Arginine vasopressin] | None detected | – |
| CC(=O)O[C@]1(C(C)=O)CC[C@H]2[C@@H]3C=C(Cl)C4=CC(=O)CC[C@]4(C)[C@H]3CC[C@@]21C [Chlormadinone acetate] | None detected | – |
| CC(C)CCC[C@@H](C)[C@H]1CC[C@H]2[C@@H]3CC=C4C[C@@H](O)CC[C@]4(C)[C@H]3CC[C@]12C [Cholesterol] | None detected | – |
| O=C(O)CC(O)(CC(=O)O)C(=O)O [Citrate] | None detected | – |
| C[C@]12C[C@H](O)[C@H]3[C@@H](CCC4=CC(=O)CC[C@@]43C)[C@@H]1CC[C@@H]2C(=O)CO [Corticosterone] | 0.0035% | – |
| C[C@]12CC[C@H](OS(=O)(=O)O)CC1=CC[C@@H]1[C@@H]2CC[C@]2(C)C(=O)CC[C@@H]12 [Dehydroisoandrosterone-3-sulfate] | None detected | – |
| C[C@]12CC[C@H](O)CC1=CC[C@@H]1[C@@H]2CC[C@]2(C)C(=O)CC[C@@H]12 [Dehydroisoandrosterone] | None detected | – |
| C[C@]12CC[C@H]3[C@@H](CCC4=CC(=O)CC[C@@]43C)[C@@H]1CC[C@@H]2C(=O)CO [Deoxycorticosterone] | 0.0046% | – |
| C[C@H]1O[C@@H](O[C@H]2[C@@H](O)C[C@H](O[C@H]3[C@@H](O)C[C@H](O[C@H]4CC[C@@]5(C)[C@H](CC[C@@H]6[C@@H]5CC[C@]5(C)[C@@H](C7=CC(=O)OC7)CC[C@]65O)C4)O[C@@H]3C)O[C@@H]2C)C[C@H](O)[C@@H]1O [Digitoxin] | 28% | – |
| C[C@H]1O[C@@H](O[C@H]2[C@@H](O)C[C@H](O[C@H]3[C@@H](O)C[C@H](O[C@H]4CC[C@@]5(C)[C@H](CC[C@@H]6[C@@H]5C[C@@H](O)[C@]5(C)[C@@H](C7=CC(=O)OC7)CC[C@]65O)C4)O[C@@H]3C)O[C@@H]2C)C[C@H](O)[C@@H]1O [Digoxin] | 5.2% | – |
| C[C@@H]1O[C@@H](O[C@H]2C[C@@H](O)[C@]3(CO)[C@H]4[C@H](O)C[C@]5(C)[C@@H](C6COC(=O)C6)CC[C@]5(O)[C@@H]4CC[C@]3(O)C2)[C@H](O)[C@H](O)[C@H]1O (stereo partly drawn) [Dihydroouabain] | 0.16% | – |
| C[C@]12CCC(=O)C=C1CC[C@@H]1[C@@H]2[C@@H](O)C[C@@]2(C)[C@H]1CC[C@]2(O)C(=O)CO [Hydrocortisone] | None detected | – |
| CC(=O)O[C@H]1C[C@H](O[C@H]2[C@@H](O)C[C@H](O[C@H]3[C@@H](O)C[C@H](O[C@H]4CC[C@@]5(C)[C@H](CC[C@@H]6[C@@H]5C[C@@H](O)[C@]5(C)[C@@H](C7=CC(=O)OC7)CC[C@]65O)C4)O[C@@H]3C)O[C@@H]2C)O[C@H](C)[C@H]1O[C@@H]1O[C@H](CO)[C@@H](O)[C@H](O)[C@H]1O [Lanatoside C] | 2.49% | – |
| C[C@]12C[C@@H](O)[C@H]3[C@@H](CC[C@]4(O)C[C@@H](O)C[C@@H](O)[C@]34CO)[C@@]1(O)CC[C@@H]2C1=CC(=O)OC1 [Ouabagenin] | 40% | – |
| CC(=O)[C@H]1CC[C@H]2[C@@H]3CCC4=CC(=O)CC[C@]4(C)[C@H]3CC[C@]12C [Progesterone] | 0.0011% | – |
| C[C@]12CC[C@H]3[C@@H](CC[C@]4(O)C[C@@H](O)CC[C@]34C=O)[C@@]1(O)CC[C@@H]2C1=CC(=O)OC1 [Strophanthidin] | 66% | – |
| C[C@]12CC[C@H]3[C@@H](CCC4=CC(=O)CC[C@@]43C)[C@@H]1CC[C@@H]2O [Testosterone] | – | cross-reactivity (relative to ouabain) ([1]; Table 1, printed without unit): 0.0042 |
| C[C@@H]1O[C@@H](O[C@H]2C[C@@H](O)[C@]3(CO)[C@H]4[C@H](O)C[C@]5(C)[C@@H](C6=CC(=O)OC6)CC[C@]5(O)[C@@H]4CC[C@]3(O)C2)[C@H](O)[C@H](O)[C@H]1O [^3 H-ouabain] | – | ^3 H-ouabain bound (typical values) ((Na^+ +K^+)ATPase [2]): 75-85 pmol/mg of enzyme protein |
| C[C@@H]1O[C@@H](O[C@H]2C[C@@H](O)[C@]3(CO)[C@H]4[C@H](O)C[C@]5(C)[C@@H](C6=CC(=O)OC6)CC[C@]5(O)[C@@H]4CC[C@]3(O)C2)[C@H](O)[C@H](O)[C@H]1O [ouabain] | – | effect on baseline tension ([3]; 170 nM human ouabain, 200 nM plant ouabain): did not affect baseline tension; activity at 0.2 µM ([3]; Cavia porcellus, read-out: histamine-evoked tension, % of control): 146 ± 16%; apparent half-time for washout of the augmented tension response ([3]; upon washout): greater than 60 min; activation at 0.2 µM ([4]; Cavia porcellus, read-out: inotropic response): 311 ± 41%; apparent half-time for washout of the inotropic response ([4]; upon washout): approximately 5 min; (Na^+ +K^+)ATPase activity ouabain-inhibitable ((Na^+ +K^+)ATPase [5]): 99% |
| C[C@]12CC[C@@H]3c4ccc(O)cc4CC[C@H]3[C@@H]1CC[C@@H]2O [β-estradiol] | None detected | – |
| Angiotensin I (DRVYIHPFHL; Angiotensin-1; UniProt P01019 25-34, looked up) | None detected | – |
| Angiotensin II | None detected | – |
| Atrial natriuretic peptide (SLRRSSCFGGRMDRIGAQSGLGCNSFRY; ends and bridges not checked; cysteine pairing not given here; UniProt P01160 124-151, looked up) | None detected | – |
| B1 | None detected | – |

From patent US5164296A, “Assay methods involving ouabain” (priority 1990, dated 1992)
